PubChem BioAssay (NCI)
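Compound exposure: 48 hours, 5 concentrations, 96-well plates. Definition used: TGI = concentration required for complete inhibition of growth.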

How the values were obtained:
Assay in all cases: inhibition of tumour cell growth, NCI panel, 48 h
A549 NSCLC = test system: A549 NSCLC
RPMI-8226 leukemia = test system: RPMI-8226 leukemia
DU-145 prostate = test system: DU-145 prostate
NCI-H23 lung = test system: NCI-H23 lung
SNB-19 CNS = test system: SNB-19 CNS
PC-3 prostate = test system: PC-3 prostate
MCF7 breast = test system: MCF7 breast
K-562 leukemia = test system: K-562 leukemia
A498 renal = test system: A498 renal
BT-549 breast = test system: BT-549 breast
UACC-62 melanoma = test system: UACC-62 melanoma
TK-10 renal = test system: TK-10 renal
MALME-3M melanoma = test system: MALME-3M melanoma
NCI-H522 lung = test system: NCI-H522 lung
SF-539 CNS = test system: SF-539 CNS
MDA-MB-435 = test system: MDA-MB-435
T-47D breast = test system: T-47D breast
SK-MEL-5 melanoma = test system: SK-MEL-5 melanoma
SR leukemia = test system: SR leukemia
ACHN renal = test system: ACHN renal
UACC-257 melanoma = test system: UACC-257 melanoma
SK-MEL-2 melanoma = test system: SK-MEL-2 melanoma
SW-620 colon = test system: SW-620 colon
SN12C renal = test system: SN12C renal
U251 CNS = test system: U251 CNS
HS 578T breast = test system: HS 578T breast
CCRF-CEM leukemia = test system: CCRF-CEM leukemia
COLO 205 colon = test system: COLO 205 colon
KM12 colon = test system: KM12 colon
OVCAR-4 ovarian = test system: OVCAR-4 ovarian
LOX IMVI melanoma = test system: LOX IMVI melanoma
NCI-H460 lung = test system: NCI-H460 lung
HCT-116 colon = test system: HCT-116 colon
786-0 renal = test system: 786-0 renal
SNB-75 CNS = test system: SNB-75 CNS
NCI/ADR-RES ovarian = test system: NCI/ADR-RES ovarian
MDA-N = test system: MDA-N
SK-MEL-28 melanoma = test system: SK-MEL-28 melanoma
HCT-15 colon = test system: HCT-15 colon
HL-60(TB) leukemia = test system: HL-60(TB) leukemia
OVCAR-8 ovarian = test system: OVCAR-8 ovarian
UO-31 renal = test system: UO-31 renal
HCC-2998 colon = test system: HCC-2998 colon
MDA-MB-231 breast = test system: MDA-MB-231 breast
SF-295 CNS = test system: SF-295 CNS
NCI-H226 lung = test system: NCI-H226 lung
CAKI-1 renal = test system: CAKI-1 renal
SK-OV-3 ovarian = test system: SK-OV-3 ovarian
HOP-92 NSCLC = test system: HOP-92 NSCLC
SF-268 CNS = test system: SF-268 CNS
HT29 colon = test system: HT29 colon
IGROV1 ovarian = test system: IGROV1 ovarian
M14 melanoma = test system: M14 melanoma
RXF 393 renal = test system: RXF 393 renal
EKVX NSCLC = test system: EKVX NSCLC
OVCAR-3 ovarian = test system: OVCAR-3 ovarian
MOLT-4 leukemia = test system: MOLT-4 leukemia
OVCAR-5 ovarian = test system: OVCAR-5 ovarian

Measured: TGI

OC1CC2CCCN(CCc3c1[nH]c1ccccc31)C2 (centres undefined)
not listed: IGROV1 ovarian | M14 melanoma | RXF 393 renal | EKVX NSCLC | OVCAR-3 ovarian | MOLT-4 leukemia | OVCAR-5 ovarian
> 100 µM: all other assays above

Cn1c(=O)c2c(nc3sc4nc5ccccc5nc4n32)n(C)c1=O
not listed: NCI-H522 lung | SK-MEL-2 melanoma | SW-620 colon | OVCAR-4 ovarian | SK-MEL-28 melanoma
> 100 µM: all other assays above
